Measurements taken from ChEMBL document CHEMBL4270561, “Biological activity of doubly modified salinomycin analogs - Evaluation in vitro and ex vivo” (Eur J Med Chem, 2018).

Key:
[1] = Selectivity index, ratio of IC50 for human MCF10A cells to IC50 for human ALL5 cells; format: toxicity; settings: MCF10A cells versus ALL5 cells, read-out: Ratio IC50
[2] = Selectivity index, ratio of IC50 for human MCF10A cells to IC50 for human SK-BR-3 cells; format: toxicity; settings: MCF10A cells versus SK-BR-3 cells, read-out: Ratio IC50
[3] = Selectivity index, ratio of IC50 for human MCF10A cells to IC50 for human MCF7 cells; format: toxicity; settings: MCF10A cells versus MCF7 cells, read-out: Ratio IC50
[4] = Selectivity index, ratio of IC50 for human MCF10A cells to IC50 for human JIMT1 cells; format: toxicity; settings: MCF10A cells versus JIMT1 cells, read-out: Ratio IC50
LoVo [5] = test: Antiproliferative activity against human LoVo cells after 72 hrs by SRB assay; format: functional, cell-based
[6] = Cell cycle arrest in human ALL5 cells assessed as accumulation at G0/G1 phase at 5 times antiproliferative IC50 after 96 hrs by propidium iodide staining based flow cytometry (reference value: 69.8%); format: functional
[7] = Cell cycle arrest in human ALL5 cells assessed as accumulation at sub-G1 phase at 5 times antiproliferative IC50 after 24 hrs by propidium iodide staining based flow cytometry (reference value: 6.07%); format: functional
[8] = Selectivity index, ratio of IC50 for human MCF10A cells to IC50 for human LoVo/DX cells; format: toxicity; settings: MCF10A cells versus LoVo/DX cells, read-out: Ratio IC50
[9] = Antiproliferative activity against human LoVo/DX cells after 72 hrs by SRB assay; format: functional, cell-based
JIMT-1 [10] = test: Antiproliferative activity against human JIMT1 cells after 72 hrs by SRB assay; format: functional, cell-based; settings: JIMT-1, 72 h
Breast carcinoma cell [11] = test: Ex vivo antitumor activity against patient derived breast cancer tissue assessed as increase in number of dead tumor cells at 18.5 uM by H and E staining based immunohistochemical analysis; format: functional; settings: Homo sapiens, TDE = time-dependent effect
[12] = Cell cycle arrest in human ALL5 cells assessed as accumulation at S-phase at 5 times antiproliferative IC50 after 24 hrs by propidium iodide staining based flow cytometry (reference value: 6.76%); format: functional
MCF-10A [13] = test: Antiproliferative activity against human MCF10A cells after 72 hrs by SRB assay; format: cell-based
SK-BR-3 [14] = test: Antiproliferative activity against human SK-BR-3 cells after 72 hrs by SRB assay; format: functional, cell-based; settings: SK-BR-3, 72 h
[15] = Selectivity index, ratio of IC50 for human MCF10A cells to IC50 for human LoVo cells; format: toxicity; settings: MCF10A cells versus LoVo cells, read-out: Ratio IC50
[16] = Antiproliferative activity against human ALL5 cells after 120 hrs by MTT assay; format: functional, cell-based; settings: ALL5, 120 h
MCF7 = test: Antiproliferative activity against human MCF7 cells after 72 hrs by SRB assay; format: functional, cell-based; settings: MCF7, 72 h
[17] = Cell cycle arrest in human ALL5 cells assessed as accumulation at G0/G1 phase at 5 times antiproliferative IC50 after 48 hrs by propidium iodide staining based flow cytometry (reference value: 69.6%); format: functional
[18] = Cell cycle arrest in human ALL5 cells assessed as accumulation at sub-G1 phase at 5 times antiproliferative IC50 after 48 hrs by propidium iodide staining based flow cytometry (reference value: 7.8%); format: functional
[19] = Cell cycle arrest in human ALL5 cells assessed as accumulation at G2/M-phase at 5 times antiproliferative IC50 after 24 hrs by propidium iodide staining based flow cytometry (reference value: 7.98%); format: functional
[20] = Cell cycle arrest in human ALL5 cells assessed as accumulation at G2/M-phase at 5 times antiproliferative IC50 after 48 hrs by propidium iodide staining based flow cytometry (reference value: 13.2%); format: functional
Breast carcinoma cell [21] = test: Ex vivo antitumor activity against patient derived breast cancer tissue assessed as decrease in tumor cell proliferation at 18.5 uM by Ki-67 staining based immunohistochemical analysis; format: functional; settings: Homo sapiens, TDE = time-dependent effect
[22] = Cell cycle arrest in human ALL5 cells assessed as accumulation at S-phase at 5 times antiproliferative IC50 after 96 hrs by propidium iodide staining based flow cytometry (reference value: 7.52%); format: functional
[23] = Cell cycle arrest in human ALL5 cells assessed as accumulation at S-phase at 5 times antiproliferative IC50 after 48 hrs by propidium iodide staining based flow cytometry (reference value: 9.82%); format: functional
[24] = Resistance index, ratio of IC50 for human LoVo/DX cells to IC50 for human LoVo cells; format: functional
[25] = Cell cycle arrest in human ALL5 cells assessed as accumulation at G0/G1 phase at 5 times antiproliferative IC50 after 24 hrs by propidium iodide staining based flow cytometry (reference value: 79.7%); format: functional
[26] = Cell cycle arrest in human ALL5 cells assessed as accumulation at sub-G1 phase at 5 times antiproliferative IC50 after 96 hrs by propidium iodide staining based flow cytometry (reference value: 12%); format: functional
[27] = Cell cycle arrest in human ALL5 cells assessed as accumulation at G2/M-phase at 5 times antiproliferative IC50 after 96 hrs by propidium iodide staining based flow cytometry (reference value: 11.1%); format: functional
JIMT-1 [28] = test: Antiproliferative activity against human JIMT1 cells at 100 ug/ml after 72 hrs by SRB assay relative to control; format: functional
[29] = Antiproliferative activity against human LoVo/DX cells at 100 ug/ml after 72 hrs by SRB assay relative to control; format: functional
[30] = Antiproliferative activity against human ALL5 cells at 10 uM after 120 hrs by MTT assay relative to control; format: functional
SK-BR-3 [31] = test: Antiproliferative activity against human SK-BR-3 cells at 100 ug/ml after 72 hrs by SRB assay relative to control; format: functional
MCF-10A [32] = test: Antiproliferative activity against human MCF10A cells at 100 ug/ml after 72 hrs by SRB assay relative to control; format: cell-based
LoVo [33] = test: Antiproliferative activity against human LoVo cells at 100 ug/ml after 72 hrs by SRB assay relative to control; format: functional

## CC[C@@H](C(=O)[C@@H](C)[C@@H](O)[C@H](C)[C@@H]1O[C@@H]([C@@H](CC)C(=O)NCCc2ccc(F)cc2)CC[C@@H]1C)[C@H]1O[C@]2(C=C[C@@H](OC(C)=O)[C@]3(CC[C@@](C)([C@H]4CC[C@](O)(CC)[C@H](C)O4)O3)O2)[C@H](C)C[C@@H]1C
[1]
  selectivity ratio: 24
[2]
  selectivity ratio: 11
[3]
  selectivity ratio: 12
[4]
  selectivity ratio: 12
LoVo [5]
  IC50: 4 µM
[6]
  Activity: 47.3%
[7]
  Activity: 11%
[8]
  selectivity ratio: 12
[9]
  IC50: 3.5 µM
JIMT-1 [10]
  IC50: 3.7 µM
Breast carcinoma cell [11]
  Activity: Tde
[12]
  Activity: 4.18%
MCF-10A [13]
  IC50: 43 µM
SK-BR-3 [14]
  IC50: 3.8 µM
[15]
  selectivity ratio: 11
[16]
  IC50: 1.8 µM
MCF7
  IC50: 3.7 µM
[17]
  Activity: 65.6%
[18]
  Activity: 27.4%
[19]
  Activity: 5.08%
[20]
  Activity: 5.2%
Breast carcinoma cell [21]
  Activity: Tde
[22]
  Activity: 1.55%
[23]
  Activity: 2.15%
[24]
  Ratio IC50: 0.88
[25]
  Activity: 79.9%
[26]
  Activity: 49.3%
[27]
  Activity: 1.96%

## CCOC(=O)O[C@@H]1C=C[C@]2(O[C@H]([C@@H](CC)C(=O)[C@@H](C)[C@@H](O)[C@H](C)[C@@H]3O[C@@H]([C@@H](CC)C(=O)OCC(F)(F)F)CC[C@@H]3C)[C@@H](C)C[C@H]2C)O[C@@]12CC[C@@](C)([C@H]1CC[C@](O)(CC)[C@H](C)O1)O2
JIMT-1 [28]
  Activity: <=50%
[29]
  Activity: <=50%
[30]
  Activity: <=50%
SK-BR-3 [31]
  Activity: <=50%
MCF7
  IC50: 68 µM
MCF-10A [32]
  Activity: <= 50%
LoVo [33]
  Activity: <=50%
